This passage reports GI50 and TGI results from PubChem BioAssay (NCI).

Values joined by “and” are separate entries in the source; they are usually repeats but may differ in a detail not shown here. Identical values can stand only once.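 Each compound was tested at five concentrations against cells in 96-well plates for 48 hours. GI50 marks 50% less growth. TGI: concentration producing complete growth inhibition.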 *1 amine or outer side, *2 acyl side, *3 side chain or, on linkers, in order; H or OH if unused. Where a SMILES comes first, the peptide text is derived from it. Bridges are numbered along the chain shown (N, C = ends). [ ]: non-standard residue; d: D form. ξ: configuration not given here. X4 = CCC(C)C(N[*:1])C(O)CC(=O)O[C@H](C(=O)C(C)C(=O)[*:2])C(C)C; NMeY = CN[C@@H](Cc1ccc(O)cc1)C(=O)O; X9 = O=C([C@@H]1CC(O)CN1[*:1])[*:2]; ξNMeL = CNC(CC(C)C)C(=O)O; ξT = CC(O)C(N)C(=O)O

Among the test systems are HCT-15 colon; NCI/ADR-RES ovarian; MDA-MB-435; A549 NSCLC; HL-60(TB) leukemia; OVCAR-3 ovarian; OVCAR-4 ovarian; SNB-75 CNS; HCT-116 colon; NCI-H460 lung.
Holding throughout (test): NCI anticancer screen, dose series, 48 h

Consider `C[C@]12CC[C@H]3[C@@H](CC=C4C[C@@H](O)CC[C@@]43C)[C@@H]1C/C(=C\c1cccc(OCCN3CCOCC3)c1)[C@@H]2O`, for which the GI50 is 38.9 µM in the assay with HCT-15 colon; 74.1 µM with NCI/ADR-RES ovarian; 85.1 µM with MDA-MB-435; more than 100 µM in the assay on A549 NSCLC; 21.5 µM with HL-60(TB) leukemia; more than 100 µM in the assay with OVCAR-3 ovarian. Further, the GI50 is more than 100 µM in the assay with OVCAR-4 ovarian, more than 100 µM in the assay on SNB-75 CNS, 80.6 µM with HCT-116 colon and more than 100 µM in the assay on NCI-H460 lung. The TGI in the assay with HCT-15 colon, in the assay with NCI/ADR-RES ovarian, with MDA-MB-435, in the assay with A549 NSCLC, in the assay on HL-60(TB) leukemia and in the assay with OVCAR-3 ovarian was more than 100 µM each time. Also, the TGI with OVCAR-4 ovarian, with SNB-75 CNS, in the assay with HCT-116 colon and with NCI-H460 lung was more than 100 µM throughout.

For the compound `COc1cc(C)cc2c1OC(c1ccccc1)CC2=O` (stereo unspecified), the GI50 in the assay with HCT-15 colon, with NCI/ADR-RES ovarian, in the assay with MDA-MB-435, in the assay with A549 NSCLC, in the assay with HL-60(TB) leukemia and with OVCAR-3 ovarian was more than 100 µM each time. The GI50 with OVCAR-4 ovarian, in the assay with SNB-75 CNS, in the assay with HCT-116 colon and with NCI-H460 lung was more than 100 µM each time. The TGI in the assay on HCT-15 colon, in the assay with NCI/ADR-RES ovarian, in the assay with MDA-MB-435, in the assay with A549 NSCLC, in the assay on HL-60(TB) leukemia and in the assay on OVCAR-3 ovarian was more than 100 µM in each case. Further, the TGI in the assay on OVCAR-4 ovarian, in the assay with SNB-75 CNS, in the assay on HCT-116 colon and in the assay with NCI-H460 lung was more than 100 µM in each case.

Turning to `S=C(Nc1ccccc1)c1ccccn1`, the GI50 was 40.3 µM in the assay with HCT-15 colon; 52.1 µM in the assay on NCI/ADR-RES ovarian; 80.6 µM in the assay on MDA-MB-435; more than 100 µM in the assay with A549 NSCLC; 31.3 µM in the assay with HL-60(TB) leukemia; 31.6 µM with OVCAR-3 ovarian. Further, the GI50 was 52.4 µM in the assay on OVCAR-4 ovarian, 54.5 µM in the assay with SNB-75 CNS, 51.3 µM with HCT-116 colon and 63.2 µM in the assay with NCI-H460 lung. For the same compound, the TGI in the assay with HCT-15 colon, in the assay on NCI/ADR-RES ovarian, with MDA-MB-435, in the assay with A549 NSCLC, with HL-60(TB) leukemia and in the assay with OVCAR-3 ovarian was more than 100 µM throughout. The TGI in the assay on OVCAR-4 ovarian, with SNB-75 CNS, in the assay with HCT-116 colon and in the assay with NCI-H460 lung was more than 100 µM throughout.

With `O=C(Oc1ccccc1)c1cc(O)c(O)c(O)c1`, the GI50 is 5.98 µM in the assay with HCT-15 colon; 11.4 µM in the assay on NCI/ADR-RES ovarian; 13.1 µM in the assay with MDA-MB-435; 9.64 µM with A549 NSCLC; 1.43 µM in the assay on HL-60(TB) leukemia; 4.34 µM in the assay on OVCAR-3 ovarian. The GI50 is 14 µM in the assay on OVCAR-4 ovarian, 7.41 µM with SNB-75 CNS, 11.7 µM with HCT-116 colon and 4.54 µM with NCI-H460 lung. The TGI with HCT-15 colon is more than 100 µM; in the assay on NCI/ADR-RES ovarian, 56.7 µM; in the assay with MDA-MB-435, more than 100 µM; in the assay on A549 NSCLC, more than 100 µM; in the assay with HL-60(TB) leukemia it was 7.12 µM; with OVCAR-3 ovarian it was 47.3 µM. For the same compound, the TGI in the assay on OVCAR-4 ovarian, with SNB-75 CNS, in the assay on HCT-116 colon and in the assay with NCI-H460 lung was more than 100 µM in each case.

Regarding `Cc1c(C(=O)/C=C/c2ccc(O)cc2)nnn1-c1ccnc2c(C(F)(F)F)cccc12`, the GI50 in the assay on HCT-15 colon is 15.1 µM; with NCI/ADR-RES ovarian, 13.9 µM; in the assay on MDA-MB-435, 10.8 µM; in the assay with A549 NSCLC it was 8.55 µM; with HL-60(TB) leukemia it was 4.01 µM; with OVCAR-3 ovarian, 19.5 µM. Besides, the GI50 was 8.81 µM with SNB-75 CNS, 6.66 µM with HCT-116 colon and 15 µM in the assay on NCI-H460 lung. Also, the TGI with HCT-15 colon was more than 100 µM; in the assay on NCI/ADR-RES ovarian, more than 100 µM; in the assay with MDA-MB-435, more than 100 µM; with A549 NSCLC it was more than 100 µM; with HL-60(TB) leukemia it was 31.4 µM; in the assay on OVCAR-3 ovarian it was more than 100 µM. The figures for the TGI with SNB-75 CNS, in the assay on HCT-116 colon and in the assay with NCI-H460 lung were 68.2 µM, more than 100 µM and more than 100 µM, respectively.

As to `COc1ccc(-c2ccc(/C=N/n3cn[nH]c3=S)o2)c([N+](=O)[O-])c1`, the GI50 in the assay with HCT-15 colon is 26 µM; in the assay with NCI/ADR-RES ovarian, 30.5 µM; in the assay on MDA-MB-435, 19.8 µM; with A549 NSCLC, 36.2 µM; in the assay with HL-60(TB) leukemia it was 14.5 µM; in the assay on OVCAR-3 ovarian, 33.9 µM. Further, the GI50 was 82.9 µM with OVCAR-4 ovarian, 29.6 µM in the assay with HCT-116 colon and 36.1 µM in the assay on NCI-H460 lung. Also, the TGI in the assay with HCT-15 colon is more than 100 µM; in the assay with NCI/ADR-RES ovarian, 94 µM; in the assay on MDA-MB-435, 44.8 µM; with A549 NSCLC, more than 100 µM; with HL-60(TB) leukemia it was 33.7 µM; in the assay on OVCAR-3 ovarian it was more than 100 µM. For the same compound, the figures for the TGI in the assay with OVCAR-4 ovarian, in the assay on HCT-116 colon and in the assay with NCI-H460 lung were more than 100 µM, 94.4 µM and more than 100 µM, respectively.

Turning to `N#Cc1nc(-c2cccc(Br)c2)cc(-c2ccc(Nc3nc(N4CCCCC4)nc(N4CCCCC4)n3)cc2)c1N`, the GI50 in the assay with HCT-15 colon was 1.72 µM; with NCI/ADR-RES ovarian it was 3.33 µM; in the assay on MDA-MB-435, 2.35 µM; in the assay on A549 NSCLC, 3.68 µM; in the assay with HL-60(TB) leukemia, 2.27 µM; in the assay on OVCAR-3 ovarian, 1.76 µM. Besides, the GI50 is 1.36 µM in the assay with SNB-75 CNS, 1.55 µM in the assay on HCT-116 colon and 1.85 µM in the assay with NCI-H460 lung. Further, the TGI is 5.53 µM with HCT-15 colon; more than 100 µM in the assay with NCI/ADR-RES ovarian; 6.64 µM in the assay on MDA-MB-435; more than 100 µM in the assay with A549 NSCLC; 6.47 µM with HL-60(TB) leukemia; 3.54 µM with OVCAR-3 ovarian. Further, the TGI was 3.73 µM in the assay on SNB-75 CNS, 3.19 µM in the assay with HCT-116 colon and 3.8 µM in the assay with NCI-H460 lung.

Take `Cn1c2ccccc2c2c(=O)n(CCCC(=O)NCC(=O)OC(=NC3CCCCC3)NC3CCCCC3)c3c(-c4ccccc4)nnn3c21`: the GI50 in the assay on HCT-15 colon was 10.8 µM; in the assay with NCI/ADR-RES ovarian it was 15.6 µM; in the assay with MDA-MB-435, 25.3 µM; in the assay on A549 NSCLC it was 38 µM; with HL-60(TB) leukemia it was 2.86 µM; with OVCAR-3 ovarian, 19.6 µM. Moreover, the GI50 was 14.3 µM with HCT-116 colon and 32 µM in the assay with NCI-H460 lung. The TGI was more than 100 µM in the assay on HCT-15 colon; 33.5 µM with NCI/ADR-RES ovarian; more than 100 µM in the assay with MDA-MB-435; more than 100 µM in the assay on A549 NSCLC; 8.31 µM in the assay on HL-60(TB) leukemia; 96.2 µM in the assay with OVCAR-3 ovarian. For the same compound, the TGI was 42.7 µM in the assay on HCT-116 colon and more than 100 µM in the assay on NCI-H460 lung.

Consider `CC1(C)OC2C(CO)OC(n3ccc(=O)[nH]c3=O)C2O1` (stereo unspecified), for which the TGI with HCT-15 colon, in the assay on NCI/ADR-RES ovarian, in the assay on MDA-MB-435, in the assay on A549 NSCLC, in the assay with HL-60(TB) leukemia and in the assay with OVCAR-3 ovarian was more than 100 µM throughout. Moreover, the TGI in the assay with HCT-116 colon and in the assay on NCI-H460 lung was more than 100 µM in each case.

In the case of `CC1(C)CCSC(/C=C/c2ccccc2)=N1`, the TGI in the assay on HCT-15 colon was 21.7 µM; with NCI/ADR-RES ovarian, 38.2 µM; in the assay on MDA-MB-435, 32.6 µM; with A549 NSCLC it was more than 100 µM; with HL-60(TB) leukemia, more than 100 µM; in the assay on OVCAR-3 ovarian it was 28.5 µM. For the same compound, the TGI is 32.5 µM in the assay on OVCAR-4 ovarian, 26.7 µM with HCT-116 colon and 24.6 µM in the assay on NCI-H460 lung.

For `CCC(C)C1NC(=O)C(NC(=O)C(CC(C)C)N(C)C(=O)[C@@H]2CC(O)CN2)C(C)OC(=O)[C@H](Cc2ccc(OC)cc2)N(C)C(=O)[C@@H]2CCCN2C(=O)[C@H](CC(C)C)NC(=O)C(C)C(=O)[C@H](C(C)C)OC(=O)CC1O` (stereo partly specified) (H-[X9][ξNMeL][ξT][X4]LP[NMeY](Me); ester 3-C), the GI50 was 0.147 µM in the assay on HCT-15 colon, 4.46 µM with NCI/ADR-RES ovarian, 0.035 µM in the assay with HL-60(TB) leukemia and 0.0166 µM in the assay on OVCAR-3 ovarian. The TGI in the assay on HCT-15 colon was 8.57 µM; in the assay with NCI/ADR-RES ovarian, more than 100 µM; with MDA-MB-435 it was 0.0555 µM and 0.131 µM; with A549 NSCLC it was 2.02 µM and 1 µM; in the assay with OVCAR-3 ovarian, 0.11 µM and 0.295 µM; with OVCAR-4 ovarian, 0.091 µM and 0.704 µM. In addition, the TGI in the assay with SNB-75 CNS was 0.119 µM and 0.166 µM; with NCI-H460 lung it was 0.134 µM and 1.1 µM.

Take `CCCCCCCCCCCCCCCCC(C(=O)O)C(O)(CC(=O)O)C(=O)O` (stereo unspecified): the TGI with HCT-15 colon is more than 100 µM; with NCI/ADR-RES ovarian, more than 100 µM; in the assay on MDA-MB-435 it was more than 100 µM; in the assay with HL-60(TB) leukemia, 34.4 µM; with OVCAR-3 ovarian, 35.8 µM; in the assay on SNB-75 CNS, 43.8 µM. Further, the TGI came to 36.3 µM in the assay on HCT-116 colon and 46.6 µM in the assay with NCI-H460 lung.

Take `COc1ncnc2c(NC3OC(CO)C(O)C3O)ncnc12` (stereo unspecified): the TGI was more than 100 µM with HCT-15 colon; 6.2 µM in the assay with NCI/ADR-RES ovarian; more than 100 µM in the assay on MDA-MB-435; 0.418 µM in the assay with HL-60(TB) leukemia; 11.1 µM in the assay on OVCAR-3 ovarian; 7.08 µM in the assay with OVCAR-4 ovarian. Besides, the results for the TGI with SNB-75 CNS, in the assay with HCT-116 colon and in the assay with NCI-H460 lung were 6.38 µM, 0.604 µM and more than 83.5 µM, respectively.
